Values quoted from earlier work, collected in patent US20100215736A1, “ORAL DOSAGE FORM PROVIDING FAST ADSORPTION OF DRUG” (NOVARTIS AG, priority 2007, published 2010).

Settings: in vivo

tmax: 36 min
SMILES: CC(C)Cc1ccc(C(C)C(=O)[O-])cc1.O.O.[Na+] (stereo not shown) [ibuprofen sodium dihydrate salt]
